Reference: US20140243403A1, “TREATING COLORECTAL, PANCREATIC, AND LUNG CANCER” (The General Hospital Corporation, priority 2011, published 2014)

What was measured:
[1] = system: SW1417 cells; experiment: Cellular proliferation and viability, CRC cell line panel; assay type: cell-based, human; settings: KRAS WT, BRAF V600E, APC del, CTNNB1 WT, 3 days post-treatment
Method: (§1) (A) IC50 values (μM) for effects on cellular proliferation and viability with the TAK1 kinase inhibitor 5z-7-oxozeaenol in a panel of colon cancer cell lines that have been genotyped as KRAS mutant (KRAS-independent—circles or KRAS-dependent—squares), BRAF mutant (triangles) or wild-type for both KRAS and BRAF (OTHER—diamonds). Effects on growth were measured 3 days post-treatment. Data are represented as the mean of 3 independent experiments and error bars indicate the median±interquartile range. *denotes p<0.00001; n.s.—not significant.
(§2) To further validate TAK1 as a candidate therapeutic target in this context, a potent and selective TAK1 kinase inhibitor, 5Z-7-oxozeaenol (Rawlins et al., 1999), was used. Sensitivity to 5Z-7-oxozeaenol was tested in a panel of 47 colon cancer cell lines with various genotypes (FIGS. 3A and 9A). KRAS and BRAF genotypes were either procured from the Sanger Institute's Catalog of Somatic Mutations (COSMIC) or determined by targeted resequencing (Table 2). KRAS mutation status was determined as described above; the same methods were used to determine the mutation states of BRAF. BRAF exon15 was sequenced with TCATAATGCTTGCTCTGATAGGA (forward; SEQ ID NO:3) and GGCCAAAAATTTAATCAGTGG (reverse; SEQ ID NO:4).

[2] = system: CL-40 cells; experiment: as above; assay type: cell-based, human; settings: KRAS G12D (KRAS-dependent), BRAF WT, 3 days post-treatment
Method: as §1, §2

[3] = system: SW1463 cells; experiment: as above; assay type: cell-based, human; settings: KRAS G12C, BRAF WT, APC del, CTNNB1 WT, 3 days post-treatment
Method: as §1, §2

[4] = system: Hs 257.T cells; experiment: as above; assay type: cell-based, human; settings: KRAS G13D, BRAF WT, 3 days post-treatment
Method: as §1, §2

[5] = system: COLO-206F cells; experiment: as above; assay type: cell-based, human; settings: KRAS WT, BRAF V600E, 3 days post-treatment
Method: as §1, §2

[6] = system: Caco-2 cells; experiment: as above; assay type: cell-based, human; settings: KRAS WT, BRAF V600E, CTNNB1 WT, 3 days post-treatment
Method: as §1, §2

[7] = system: WiDR cells; experiment: as above; assay type: cell-based, human; settings: KRAS WT, BRAF V600E, APC del, CTNNB1 WT, 3 days post-treatment
Method: as §1, §2

[8] = system: HT55 cells; experiment: as above; assay type: cell-based, human; settings: KRAS WT, BRAF WT, APC del, CTNNB1 WT, 3 days post-treatment
Method: as §1, §2

[9] = system: LoVo cells; experiment: as above; assay type: cell-based, human; settings: KRAS G13D (KRAS-dependent), BRAF WT, APC del, CTNNB1 WT, 3 days post-treatment
Method: as §1, §2

[10] = system: Hs 1.Int cells; experiment: as above; assay type: cell-based, human; settings: KRAS WT, BRAF WT, 3 days post-treatment
Method: as §1, §2

[11] = system: COLO-741 cells; experiment: as above; assay type: cell-based, human; settings: KRAS WT, BRAF V600E, 3 days post-treatment
Method: as §1, §2

[12] = system: HCT-116 cells; experiment: as above; assay type: cell-based, human; settings: KRAS G13D, BRAF WT, APC WT, CTNNB1 S45del, 3 days post-treatment
Method: as §1, §2

[13] = system: T84 cells; experiment: as above; assay type: cell-based, human; settings: KRAS G13D, BRAF WT, APC del, CTNNB1 WT, 3 days post-treatment
Method: as §1, §2

[14] = system: MDST8 cells; experiment: as above; assay type: cell-based, human; settings: KRAS WT, BRAF V600K, APC nd, CTNNB1 WT, 3 days post-treatment
Method: as §1, §2

[15] = system: SW48 cells; experiment: as above; assay type: cell-based, human; settings: KRAS WT, BRAF WT, APC WT, CTNNB1 S33Y, 3 days post-treatment
Method: as §1, §2

[16] = system: CoCM-1 cells; experiment: as above; assay type: cell-based, human; settings: KRAS WT, BRAF WT, APC WT, CTNNB1 WT, 3 days post-treatment
Method: as §1, §2

[17] = system: LS-180 cells; experiment: as above; assay type: cell-based, human; settings: KRAS G12D, BRAF WT, APC WT, CTNNB1 S45A, 3 days post-treatment
Method: as §1, §2

[18] = system: H630 cells; experiment: as above; assay type: cell-based, human; settings: KRAS WT, BRAF WT, APC del, CTNNB1 WT, 3 days post-treatment
Method: as §1, §2

[19] = system: HT29 cells; experiment: as above; assay type: cell-based, human; settings: KRAS WT, BRAF V600E, APC del, CTNNB1 WT, 3 days post-treatment
Method: as §1, §2

[20] = system: Gp5D cells; experiment: as above; assay type: cell-based, human; settings: KRAS G12D (KRAS-dependent), BRAF WT, APC del, CTNNB1 WT, 3 days post-treatment
Method: as §1, §2

[21] = system: CCK-81 cells; experiment: as above; assay type: cell-based, human; settings: KRAS WT, BRAF WT, 3 days post-treatment
Method: as §1, §2

[22] = system: C2BBe1 cells; experiment: as above; assay type: cell-based, human; settings: KRAS WT, BRAF WT, APC del, CTNNB1 WT, 3 days post-treatment
Method: as §1, §2

[23] = system: MCF10A; experiment: Sensitivity of non-transformed epithelial cell line; assay type: cell-based
Method: (§3) (A) 5Z-7-oxozeaenol IC50 values for colorectal cancer cell lines of various genotypes as well as 2 “normal” epithelial cell lines, MCF10A and MDCK (light gray bars). Data are represented as the mean of 3 independent experiments+/−SEM.
(§4) To determine if sensitivity to TAK1 inhibition is specific to colon cancer-derived cell lines, sensitivity to 5Z-7-oxozeaenol was assessed in 5 KRAS mutant pancreatic ductal adenocarcinoma (PDAC) and 4 non-small cell lung cancer (NSCLC) cells, all of which are APC wild-type (FIG. 9B).

[24] = system: MDCK; experiment: as above; assay type: cell-based
Method: as §3, §4

[25] = system: HT29 cells expressing mutant KRAS (G12V) 4A or 4B; experiment: Sensitivity of HT29 cells expressing mutant KRAS (G12V); assay type: cell-based, human; settings: HT29 cells expressing 4A or 4B splice isoform of mutant KRAS (G12V)
Excerpt: (D) Forced overexpression of epitope-tagged oncogenic G12V mutated RAS protein isoforms in HT29 cells and sensitivity to TAK1 pharmacological inhibition with 5Z-7-oxozeaenol. Expression levels of exogenous and endogenous Ras proteins are shown by immunoblotting with a pan-ras monoclonal antibody. NRAS/KRAS4B are HA-tagged and KRAS4A is V5-tagged.
These cell lines are insensitive to 5Z-7-oxozeaenol.

With `COc1cc(O)c2c(c1)/C=C/C[C@H](O)[C@H](O)C(=O)/C=C\C[C@H](C)OC2=O` [5Z-7-oxozeaenol] as the compound, how does the IC50 [1] read?
Its IC50 is 1240 nM.

And the IC50 [2]?
The IC50 was 482 nM.

What about the IC50 [3] of the same compound?
Its IC50 is 2420 nM.

And the IC50 [4]?
The IC50 was 3.2 µM.

And the IC50 [5]?
Its IC50 is 509 nM.

What about the IC50 [6] of the same compound?
The IC50 was 1440 nM.

What about the IC50 [7] of the same compound?
Its IC50 is 2480 nM.

What about the IC50 [8] of the same compound?
The IC50 was 1540 nM.

What about the IC50 [9] of the same compound?
The IC50 was 106 nM.

What about the IC50 [10] of the same compound?
The IC50 was 5.64 µM.

What about the IC50 [11] of the same compound?
Its IC50 is 1820 nM.

And the IC50 [12]?
Its IC50 is 2380 nM.

What about the IC50 [13] of the same compound?
The IC50 was 2810 nM.

And the IC50 [14]?
The IC50 was 226 nM.

What about the IC50 [15] of the same compound?
The IC50 was 1940 nM.

What about the IC50 [16] of the same compound?
The IC50 was 926 nM.

And the IC50 [17]?
The IC50 was 6.75 µM.

And the IC50 [18]?
Its IC50 is 4.48 µM.

And the IC50 [19]?
The IC50 was 7.88 µM.

And the IC50 [20]?
The IC50 was 1770 nM.

And the IC50 [21]?
The IC50 was 412 nM.

What about the IC50 [22] of the same compound?
Its IC50 is 9.32 µM.

What about the IC50 [23] of the same compound?
The IC50 was 5.5 µM.

And the IC50 [24]?
The IC50 was 22 µM.

What about the “reduction in the IC50 for 5Z-7-oxozeaenol” value [25] of the same compound?
Its value is 3 fold.
